From patent US6800762B2, “Indolin derivaties as sun protection agents” (Ciba Specialty Chemicals Corporation, priority 1998, dated 2004)

Columns and labels:
[1] = UV absorption: molar extinction coefficient at λmax; assay type: physicochemical
Excerpt: ε=62081 in ethanol l/(mol/cm) at λmax=434 nm, elemental analysis for C24H32N2O2[%]:

[2] = photostability; assay type: physicochemical; details: read-out: photostability t1/2 (converted)

λmax ([1]; in ethanol)	ε ([1]; in ethanol at λmax)	λmax ([1]; in dioxane)	ε ([1]; in dioxane at λmax)	half-life [2]	Compound
434 nm	62081 l/(mol/cm)				CCCCC(CC)COC(=O)/C(C#N)=C/C=C1\N(C)c2ccccc2C1(C)C (stereo not drawn) [Example 2]
		377 nm	29427 l/(mol/cm)		CN1/C(=C/C(=O)c2ccccc2)C(C)(C)c2ccccc21 [Example 3]
	34520 l/(mol/cm)			208 h	CN1/C(=C\C=O)C(C)(C)c2ccccc21 [Example 1, 2-(1,3,3-trimethyl-indolin-2-ylene) acetaldehyde]
